Measured values taken from US11117888B2, “Irreversible inhibitors of pyruvate kinase M2 and the use thereof” (China Medical University, priority 2020, dated 2021).

Experiments:
[1] = tested on: pyruvate kinase activity in PC-9 cells; experiment: Pyruvate kinase activity assay in PC-9 cells; format: cell-based, human; settings: 0.25 μM, 6 hours, relative to vehicle control
Protocol: (§1) Pyruvate kinase activity assays. PC-9 cells were seeded into 6 cm dishes at a concentration of 5×10^5 cells/mL. After 24 hours, cells were treated with 0.25 μM compound 1 or DMSO for 6 hours. The pyruvate kinase activity of compound 1-treated PC-9 and vehicle control cells was measured by using a commercial colorimetric assay kit from BioVision (Milpitas, Calif., USA) according to the manufacturer's protocol. In addition, to verify the specificity of compound 1 toward PKM2 versus PKM1, the inhibition of the kinase activity of recombinant PKM1 (SRP0415, Sigma-Aldrich) and recombinant PKM2 (SAE0021, Sigma-Aldrich) by compound 1 was conducted using the aforementioned assay kit.

PC-9 cells = experiment: Seahorse Glycolysis Stress assay (ECAR and OCR); format: cell-based, human
Text: In light of the role of PKM2 in promoting glycolysis, we hypothesized that the antitumor activity of compound 1 might, in part, be attributable to its ability to reverse the glycolytic phenotype (i.e., Warburg effect) of cancer cells. Accordingly, we examined the effects of compound 1 on the extracellular acidification rate (ECAR) and cellular oxygen consumption rate (OCR) in PC-9 cells, which represent key bioenergetic parameters of glycolysis (lactate production) and mitochondrial respiration (oxidative phosphorylation), respectively, using a commercial kit (Agilent Seahorse XF Glycolysis Stress Test Kit). In the ECAR measurement, glucose, oligomycin (an ATP synthetase inhibitor), and 2-deoxyglucose (2-DG; a hexokinase/glycolysis inhibitor) were added in tandem to glucose-starved cells at different time intervals to activate or interfere with glycolysis, thereby allowing the calculation of the glycolytic flux and glycolytic capacity. […] Meanwhile, the OCR response, a parameter for oxidative phosphorylation, was concurrently monitored. […] It is noteworthy that when glucose was added to the basal medium, there was a decrease in the OCR in the control group. This phenomenon was previously referred to as the “Crabtree effect”, i.e., when glucose is added to activate glycolysis, it might be more favorable for cells to generate ATP through substrate-level phosphorylation, thereby reducing the need of oxidative phosphorylation. However, this glucose-induced drop in OCR became less apparent in the presence of compound 1, which might be associated with the ability of compound 1 to block glycolysis.
Glycolysis Stress assay. Extracellular acidification rate (ECAR) and oxygen consumption rate (OCR) were measured using a Seahorse Bioscience XF96 extracellular flux analyzer (Seahorse Bioscience) according to the manufacturer's protocol. PC-9 ells (5×10^4) were seeded in 96 Seahorse XF Cell Culture Microplate with normal growth medium 24 hours before treatment with compounds. The cells were treated with DMSO or compound 1 for 4 hours at 37° C. under 5% CO2 atmosphere. […]

PKM2 = PKM2 (Homo sapiens, UniProt P14618); experiment: Recombinant PKM2 kinase activity assay; format: biochemical; set-up: purchased Sigma-Aldrich SAE0021; settings: after 20 min of exposure
PKM2, sequence (P14618 whole entry): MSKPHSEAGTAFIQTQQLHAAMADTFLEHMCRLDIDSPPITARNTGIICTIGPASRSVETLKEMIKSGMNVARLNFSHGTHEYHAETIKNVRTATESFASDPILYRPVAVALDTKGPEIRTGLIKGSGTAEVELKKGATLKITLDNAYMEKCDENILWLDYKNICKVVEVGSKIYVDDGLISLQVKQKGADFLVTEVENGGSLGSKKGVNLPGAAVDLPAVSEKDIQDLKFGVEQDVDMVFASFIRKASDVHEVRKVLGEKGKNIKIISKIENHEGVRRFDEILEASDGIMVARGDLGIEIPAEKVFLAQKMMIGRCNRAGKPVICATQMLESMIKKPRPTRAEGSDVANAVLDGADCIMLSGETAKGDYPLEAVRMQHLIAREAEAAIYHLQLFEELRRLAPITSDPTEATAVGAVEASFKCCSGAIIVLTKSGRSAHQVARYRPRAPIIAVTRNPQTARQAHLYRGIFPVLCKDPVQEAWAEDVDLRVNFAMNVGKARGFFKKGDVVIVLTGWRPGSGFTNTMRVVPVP
Protocol: As this cell-based kinase assay could not rule out the involvement of PKM1, we examined the abilities of compound 1 to inhibit the kinase activity of recombinant PKM2 (SAE0021, Sigma-Aldrich) versus recombinant PKM1 (SRP0415, Sigma-Aldrich) using a commercial PKM assay kit. […] In brief, PC-9 cells were exposed to different concentrations of compound 2 in the presence of compound 1 (1 μM) for 1 hour, lysed, and the cell lysates were treated with biotin-azide, followed by streptavidin bead pulldown under the aforementioned conditions. […] The antigen of compound 1 was prepared by coupling this small molecule with cysteine residues of ovalbumin, which was then used for immunization in guinea pigs.
as §1

[2] = tested on: 246 different kinases (activity) and 143 different kinases (substrate binding); experiment: Kinase profiling analysis (Life Technologies' SelectScreen Profiling Service); format: biochemical; settings: 500 nM; activity of 246 kinases, substrate binding to 143 kinases
Protocol: To shed light onto its potential target, compound 1 was submitted to a commercial vendor for kinase profiling analysis (Life Technologies' SelectScreen Profiling Service), in which the inhibitory effects of compound 1 at 500 nM on the activity of 246 different kinases as well as substrate binding to 143 different kinases were tested.

H1650 lung cancer cells = experiment: MTT cell viability assay, H1650; format: cell-based; settings: Homo sapiens, NCI-H1650, H1650 (mutant EGFR), 24 hours
Text: (§2) Cell lines, cell culture, biochemical reagents, and antibodies. MiaPaCa-2, AsPC-1, and Panc-1 human pancreatic cancer cells, MCF-7 and MDA-MB-231 breast cancer cells, SCC4 and SCC2059 oral cancer cells, PC-3 and LNCaP prostate cancer cells, H157, H460, H1975, PC-9 and H1650 lung cancer cells were obtained from the American Type Culture Collection (ATCC, Manassas, Va.). All these cells were maintained in recommended growth medium (RPMI 1640 or DMEM) supplemented with 10% fetal bovine serum (FBS) (Invitrogen, Carlsbad, Calif., USA) and antibiotics at 37° C. in a humidified incubator containing 5% CO2. For SILAC experiments, PC-9 cells were grown in SILAC DMEM medium (Thermo Fisher) supplemented with 10% dialyzed FBS and 100 μg/mL each of unlabeled L-arginine and L-lysine (light medium) or ^13C/^15N stable isotope-labeled L-arginine and L-lysine (heavy medium). […]
(§3) Cell viability assays. Drug effects on cell viability was assessed by 3-(4,5-dimethylthiazol-2-yl)-2,5-diphenyltetrazolium bromide ([…]) assays. […] The medium was then removed from each well and replaced with DMSO to dissolve the reduced MTT dye for subsequent colorimetric measurement of absorbance at 560 nm. Cell viabilities are expressed as percentages of viable cells relative to the corresponding vehicle-treated control group.

[3] = tested on: MDA-MB-231 breast cancer cells; experiment: MTT cell viability assay, MDA-MB-231; format: cell-based; settings: Homo sapiens; MDA-MB-231, MTT, 24 hours
Text: as §2, §3

With C#CC(=O)Nc1ccc(-n2nc(CCC(=O)NC)cc2-c2ccc(-c3ccc(C(F)(F)F)cc3)cc2)cc1 [compound 1, N-(4-(3-(3-(Methylamino)-3-oxopropyl)-5-(4′-(trifluoromethyl)-[1,1′-biphenyl]-4-yl)-1H-pyrazol-1-yl)phenyl)propiolamide] the “pyruvate kinase activity in cells” value [1] was “significantly reduced pyruvate kinase activity”, the “glycolytic acidification (ECAR)” value (PC-9 cells; 0.25-1 μM, 4 hours) was “suppressed the glycolytic acidification in a concentration-dependent manner” and the “non-glycolytic acidification (ECAR)” value (PC-9 cells; 0.25-1 μM, 4 hours) was “no appreciable effect”. For the same molecule, the “oxygen consumption rate (OCR), basal state” value (PC-9 cells; prior to glucose supplementation, relative to DMSO) was “increase oxygen consumption in the basal state”, the “inhibition of kinase activity of recombinant PKM2” value (PKM2) was “suppress the kinase activity of PKM2” and the “inhibition of kinases in profiling panel” value [2] was “none of the kinases examined was effectively inhibited”. The IC50 (H1650 lung cancer cells) was 200 nM and the IC50 [3] was 100 nM.
